According to patent publication US6759241B1, “Adjuvant comprising a lipopolysaccharide antagonist” (priority 1999, dated 2004):
Where no end group is shown, it is not given here.

How the values were obtained:
[1] = test system: human peripheral blood mononuclear cells (PBMCs); test: LPS antagonist activity: TNFα secretion by stimulated human PBMCs (capture ELISA); format: cell-based; settings: 1 μg/ml + W3110 (10 ng/ml), 8 hr
Procedure: W3110 LPS (also cultured at 37° C.) from 1 ng/ml to 100 ng/ml alone and W3110 LPS (10 ng/ml) mixed with synthetic lipid IVA (1 μg/ml) were used as controls. For this, PBMCs were obtained from 50 ml of whole blood and resuspended in complete medium (CM; RPMI containing pyruvate, glutamine, PenStrep, and 10% endotoxin-free human AB serum (Life Technologies) at a density of 6×10^6 PBMCs/ml. CM containing W3110 LPS, MLK986 LPS or synthetic lipid IVA was placed into duplicate wells of a 96-well flat bottom culture plate (Costar) at double the target final concentration. An equal volume of CM containing the PBMCs then was added to these wells and the culture plates were incubated at 37° C. in 5% CO2 for 8 hr. The supernatants were then removed and stored at […] Quantitation of TNFα, IL-1β, and IL-6 in these culture supernatants was achieved by capture ELISA (R&D Systems).

BALB/c mice [2] = test: Adjuvant activity with protein antigen gp120: anti-gp120 serum IgG by ELISA; format: in vivo
Procedure: Vaccine preparations containing an LPS antagonist and a protein antigen can be prepared in the following manner. Each vaccine preparation contained 5 μg of fully glycosylated endotoxia-free HIV-1MN gp120 (Virostat Cat. No. 8919, Lot AM735). Preparations comprised of gp120 and LPS antagonist were formulated essentially as outlined in Example 2 above except that each dose contained 5 μg of gp120 combined with a range of LPS antagonist doses (from 1 μg to 10 μg). The LPS antagonist was isolated from MLK986 cultured at 37° C. as described above.
Groups of 3 BALB/c mice were given a single dose of a given preparation of gp120 and LPS antagonist subcutaneously (primary vaccination). To determine the immunogenicity of the antigen in the absence of LPS antagonist, a group of BALB/c mice were vaccinated with 5 μg gp 120 formulated alone. For comparative purposes, an additional group of mice were vaccinated with 5 μg of gp120 formulated with Alum, as described (Coligan, et al., 1994, supra).
To measure the immunogenicity of each formulation, sera were collected from the mice in each group before and on day 14 after primary vaccination, as described in Example 2 above. On day 21 after the primary vaccination, mice were given a booster vaccination containing […] of gp120 formulated with matched doses of LPS antagonist, as was given in the primary vaccination. Ten and 17 days after the boost, venous blood was collected from the mice, and sera were obtained as outlined above. The level of anti-gp120 IgG in pooled serum samples was determined by ELISA as described in Example 2 above, except that gp120 was used in place of Hep-Tat in the first coating step. The results of the ELISA were obtained by reading the optical density of each well using a Molecular Dynamics ELISA plate reader and are shown in Table 3 below. The data are presented as dilution of the sera to achieve 50% saturation.

BALB/c mice [3] = test: Adjuvant activity with peptide antigen Hep-Tat: Hep-Tat-specific serum IgG by ELISA; format: in vivo
Procedure: Vaccine preparations containing a peptide antigen and an LPS antagonist were prepared in the following manner. Each vaccine preparation contained […] of the vaccine peptide (herein designated “Hep-Tat”) that corresponds to the heparin-binding domain of the HIV-1 regulatory protein Tat and is comprised of the following sequence (GLGIS YGRKKRRQR; SEQ ID NO: 1). The peptide antigen was prepared synthetically as a Multiple Antigen Peptide (MAPS;Genosys). To formulate the preparations comprised of Hep-Tat and LPS antagonist (purified as outlined above), […] of Hep-Tat was combined with a range of LPS antagonist doses (from […]). The LPS antagonist was isolated from MLK986 cultured at 37° C. as described in. Example 1.
Groups of three BAL Blc mice were injected intraperitoneally with a single dose of a given preparation of Hep-Tat and LPS antagonist (i.e., primary vaccination). To determine the immunogenicity of the antigen in the absence of LPS antagonist, a group of BALB/c mice were vaccinated with 50 μg Hep-Tat formulated-alone. For comparative purposes, an additional group of mice was vaccinated with 50 μg Hep-Tat formulated with Alum, as described (Coligan, et al., 1994, supra).
To measure the immunogenicity of each formulation, venous blood was collected from the mice in each group before and on day 14 after primary vaccination, as described (Coligan, et al., 1994, supra). Serum was then obtained from each of these blood samples using standard techniques (Coligan, et al., 1994, supra). On day 21 after the primary vaccination, mice were given a booster vaccination containing the same dose of Hep-Tat and LPS antagonist or alum as was given in the primary vaccination. Seven days after the boost, venous blood was collected from the mice in each, and sera were obtained as outlined above. Each of the serum samples from individual groups were pooled and the level of Hep-Tat-specific IgG was ascertained by ELISA. In short, plastic 96 well ELISA plates (Immunol 2 Dynatech) were coated with Hep-Tat, by adding […] of Hep-Tat at 10 μg/ml suspended in PBS (Phosphate Buffer Saline) pH 7.4 in each well, and incubating overnight at 4° C. The plates were subsequently washed to remove unbound peptide and then 100 μl of blocking solution (comprised of 1% (w/v) Bovine Serum Albumin (BSA; Sigma) suspended in PBS) was added to each well. […] The result of the ELISA were obtained by reading the optical density of each well using a Molecular Dynamics ELISA plate reader. […]

[4] = Pre (before primary vaccination), pooled sera

CCCCCCCCCCC[C@@H](O)CC(=O)N[C@H]1[C@H](OC[C@H]2O[C@H](OP(=O)(O)O)[C@H](NC(=O)C[C@H](O)CCCCCCCCCCC)[C@@H](OC(=O)C[C@H](O)CCCCCCCCCCC)[C@@H]2O)O[C@H](CO)[C@@H](OP(=O)(O)O)[C@@H]1OC(=O)C[C@H](O)CCCCCCCCCCC [Lipid IVA]
TNFa [1]: <30 pg/mL

Gp120: fully glycosylated endotoxin-free HIV-1MN gp120 (Virostat Cat. No. 8919)
Gp120-specific serum antibodies (anti-gp120 IgG), dilution of the sera to achieve 50% saturation (BALB/c mice [2]; 5 μg gp120 alone, subcutaneous, Day 14): <10
immunogenicity of the antigen dose (BALB/c mice [2]; 5 μg of gp120 formulated with Alum, preliminary experiments): marginally immunogenic
Gp120-specific serum antibodies (anti-gp120 IgG), dilution of the sera to achieve 50% saturation (BALB/c mice [2]; [4]): −10
Gp120-specific serum antibodies (anti-gp120 IgG), dilution of the sera to achieve 50% saturation (BALB/c mice [2]; gp120 alone, subcutaneous, boosted, Day 21): <10

Hep-Tat: vaccine peptide, heparin-binding domain of HIV-1 Tat (GLGIS YGRKKRRQR; SEQ ID NO: 1), Multiple Antigen Peptide (GLGISYGRKKRRQR; also: multiple antigen peptide format)
Tat-specific antibodies (Hep-Tat-specific IgG), dilution of the sera to achieve the 50% saturation (BALB/c mice [3]; 50 μg Hep-Tat alone, intraperitoneal, boosted, Day 21): <10
Tat-specific antibodies (Hep-Tat-specific IgG), dilution of the sera to achieve the 50% saturation (BALB/c mice [3]; 50 μg Hep-Tat alone, intraperitoneal, Day 14): <10
immunogenicity of the antigen dose (BALB/c mice [3]; 50 μg of Hep-Tat formulated with Alum (Pierce), preliminary experiments): marginally immunogenic
Tat-specific antibodies (Hep-Tat-specific IgG), dilution of the sera to achieve the 50% saturation (BALB/c mice [3]; [4]): <10
